Test results from US7528138B2, “Pyrazolo[1,5-a]pyrimidines useful as inhibitors of protein kinases” (Vertex Pharmaceuticals Incorporated, priority 2004, dated 2009).

Columns and labels:
Format in all cases: biochemical
[1] = target: T1, JAK3 (Homo sapiens, UniProt P52333); test: JAK3 Inhibition Assay, 33P incorporation; settings: enzyme inhibition data (Ki), Table 11
T1 sequence (P52333 1-1124): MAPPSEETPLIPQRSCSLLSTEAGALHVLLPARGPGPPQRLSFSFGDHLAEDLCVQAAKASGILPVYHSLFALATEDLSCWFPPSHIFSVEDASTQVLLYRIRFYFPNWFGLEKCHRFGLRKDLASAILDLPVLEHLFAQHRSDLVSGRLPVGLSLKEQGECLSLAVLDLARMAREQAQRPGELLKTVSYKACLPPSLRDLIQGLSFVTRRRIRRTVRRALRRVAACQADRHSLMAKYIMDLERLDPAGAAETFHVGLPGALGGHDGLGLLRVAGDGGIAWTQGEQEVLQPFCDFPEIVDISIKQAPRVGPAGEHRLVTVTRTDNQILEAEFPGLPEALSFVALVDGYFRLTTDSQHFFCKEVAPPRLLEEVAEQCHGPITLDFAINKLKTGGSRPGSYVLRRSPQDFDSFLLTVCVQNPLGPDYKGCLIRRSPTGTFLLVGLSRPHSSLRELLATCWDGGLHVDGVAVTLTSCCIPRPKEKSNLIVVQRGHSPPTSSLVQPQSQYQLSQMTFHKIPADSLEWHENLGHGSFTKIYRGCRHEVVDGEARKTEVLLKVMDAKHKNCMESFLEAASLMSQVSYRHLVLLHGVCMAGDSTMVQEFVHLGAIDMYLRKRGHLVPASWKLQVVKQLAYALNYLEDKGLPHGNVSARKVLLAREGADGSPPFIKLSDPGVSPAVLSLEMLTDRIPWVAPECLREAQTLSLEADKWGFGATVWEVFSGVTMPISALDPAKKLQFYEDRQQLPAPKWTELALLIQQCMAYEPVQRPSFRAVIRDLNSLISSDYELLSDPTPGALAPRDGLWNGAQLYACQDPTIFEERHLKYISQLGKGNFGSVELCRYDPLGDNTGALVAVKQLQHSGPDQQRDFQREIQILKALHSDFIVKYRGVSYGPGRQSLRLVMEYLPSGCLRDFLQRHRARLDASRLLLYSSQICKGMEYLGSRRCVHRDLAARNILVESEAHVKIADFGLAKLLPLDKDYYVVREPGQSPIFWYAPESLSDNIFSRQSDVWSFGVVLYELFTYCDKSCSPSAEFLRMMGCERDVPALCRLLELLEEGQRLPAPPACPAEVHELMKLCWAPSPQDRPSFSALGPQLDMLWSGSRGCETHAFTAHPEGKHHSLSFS
Description: Reactions are carried out in a kinase buffer containing 100 mM HEPES (pH 7.4), 1 mM DTT, 10 mM MgCl2, 25 mM NaCl, and 0.01% BSA. Substrate concentrations in the assay are 5 μM ATP (200 uCi/μmole ATP) and 1 μM poly(Glu)4Tyr. Reactions are carried out at 25° C. and 1 nM JAK3. To each well of a 96 well polycarbonate plate is added 1.5 μl of a candidate JAK3 inhibitor along with 50 μl of kinase buffer containing 2 μM poly(Glu)4Tyr and 10 μM ATP. This is then mixed and 50 μl of kinase buffer containing 2 nM JAK3 enzyme is added to start the reaction. After 20 minutes at room temperature (25 C), the reaction is stopped with 50 μl of 20% trichloroacetic acid (TCA) that also contained 0.4 mM ATP. The entire contents of each well are then transferred to a 96 well glass fiber filter plate using a TomTek Cell Harvester. After washing, 60 μl of scintillation fluid is added and ^33P incorporation detected on a Perkin Elmer TopCount.

[2] = target: T2, Itk (Homo sapiens, UniProt Q08881); test: ITK Inhibition Assay (Radiometric), radioactive-phosphate incorporation; settings: enzyme inhibition data (Ki), Table 11; radiometric or UV assay not stated
T2 sequence (Q08881 1-620): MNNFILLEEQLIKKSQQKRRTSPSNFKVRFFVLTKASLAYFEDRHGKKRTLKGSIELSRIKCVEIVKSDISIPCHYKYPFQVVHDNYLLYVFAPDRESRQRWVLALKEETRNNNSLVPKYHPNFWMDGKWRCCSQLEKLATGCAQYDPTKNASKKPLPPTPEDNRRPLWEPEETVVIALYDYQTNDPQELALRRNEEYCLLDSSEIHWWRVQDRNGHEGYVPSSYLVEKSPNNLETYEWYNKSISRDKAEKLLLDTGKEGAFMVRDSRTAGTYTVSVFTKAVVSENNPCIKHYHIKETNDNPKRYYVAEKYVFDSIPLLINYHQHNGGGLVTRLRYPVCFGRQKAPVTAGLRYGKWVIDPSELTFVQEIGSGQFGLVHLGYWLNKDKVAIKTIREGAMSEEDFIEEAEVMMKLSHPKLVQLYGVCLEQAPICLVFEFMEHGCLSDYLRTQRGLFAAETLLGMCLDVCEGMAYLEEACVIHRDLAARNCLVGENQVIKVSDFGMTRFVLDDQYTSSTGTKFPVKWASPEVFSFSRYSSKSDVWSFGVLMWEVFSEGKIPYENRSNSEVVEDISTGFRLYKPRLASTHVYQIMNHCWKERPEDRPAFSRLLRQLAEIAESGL
Description: Assays are carried out in a mixture of 20 mM MOPS (pH 7.0), 10 mM MgCl2, 0.1% BSA and 1 mM DTT. Final substrate concentrations in the assay are 7.5 μM [γ-33P]ATP (400 mCi 33P ATP/mmol ATP, Amersham Pharmacia Biotech/Sigma Chemicals) and 3 μM peptide (SAM68 protein D332-443). Assays are carried out at 25° C. in the presence of 50 nM Itk. An assay stock buffer solution is prepared containing all of the reagents listed above, with the exception of ATP and the test compound of interest. 50 μL of the stock solution is placed in a 96 well plate followed by addition of 2 μL of DMSO stock containing serial dilutions of the test compound (typically starting from a final concentration of 50 μM with 2-fold serial dilutions) in duplicate (final DMSO concentration 2%). The plate is pre-incubated for 10 minutes at 25° C. and the reaction initiated by addition of 50 μL [γ-33P]ATP (final concentration 7.5 μM).
The reaction is stopped after 10 minutes by the addition of […] 0.2M phosphoric acid+0.01% TWEEN 20. A multiscreen phosphocellulose filter 96-well plate (Millipore, Cat no. MAPHN0B50) is pretreated with 100 μL 0.2M phosphoric acid +0.01% TWEEN 20 prior to the addition of […] of the stopped assay mixture. The plate is washed with 4×200 μL 0.2M phosphoric acid+0.01% TWEEN 20. After drying, 30 μL Optiphase ‘SuperMix’ liquid scintillation cocktail (Perkin Elmer) is added to the well prior to scintillation counting (1450 Microbeta Liquid Scintillation Counter, Wallac).
Ki(app) data are calculated from non-linear regression analysis of the initial rate data using the Prism software package (GraphPad Prism version 3.0cx for Macintosh, GraphPad Software, San Diego Calif., USA).

[3] = target: c-Met (Homo sapiens, UniProt P08581); test: c-Met Inhibition Assay, coupled enzyme system; settings: enzyme inhibition data (Ki), Table 11
c-Met, sequence (P08581 25-1390): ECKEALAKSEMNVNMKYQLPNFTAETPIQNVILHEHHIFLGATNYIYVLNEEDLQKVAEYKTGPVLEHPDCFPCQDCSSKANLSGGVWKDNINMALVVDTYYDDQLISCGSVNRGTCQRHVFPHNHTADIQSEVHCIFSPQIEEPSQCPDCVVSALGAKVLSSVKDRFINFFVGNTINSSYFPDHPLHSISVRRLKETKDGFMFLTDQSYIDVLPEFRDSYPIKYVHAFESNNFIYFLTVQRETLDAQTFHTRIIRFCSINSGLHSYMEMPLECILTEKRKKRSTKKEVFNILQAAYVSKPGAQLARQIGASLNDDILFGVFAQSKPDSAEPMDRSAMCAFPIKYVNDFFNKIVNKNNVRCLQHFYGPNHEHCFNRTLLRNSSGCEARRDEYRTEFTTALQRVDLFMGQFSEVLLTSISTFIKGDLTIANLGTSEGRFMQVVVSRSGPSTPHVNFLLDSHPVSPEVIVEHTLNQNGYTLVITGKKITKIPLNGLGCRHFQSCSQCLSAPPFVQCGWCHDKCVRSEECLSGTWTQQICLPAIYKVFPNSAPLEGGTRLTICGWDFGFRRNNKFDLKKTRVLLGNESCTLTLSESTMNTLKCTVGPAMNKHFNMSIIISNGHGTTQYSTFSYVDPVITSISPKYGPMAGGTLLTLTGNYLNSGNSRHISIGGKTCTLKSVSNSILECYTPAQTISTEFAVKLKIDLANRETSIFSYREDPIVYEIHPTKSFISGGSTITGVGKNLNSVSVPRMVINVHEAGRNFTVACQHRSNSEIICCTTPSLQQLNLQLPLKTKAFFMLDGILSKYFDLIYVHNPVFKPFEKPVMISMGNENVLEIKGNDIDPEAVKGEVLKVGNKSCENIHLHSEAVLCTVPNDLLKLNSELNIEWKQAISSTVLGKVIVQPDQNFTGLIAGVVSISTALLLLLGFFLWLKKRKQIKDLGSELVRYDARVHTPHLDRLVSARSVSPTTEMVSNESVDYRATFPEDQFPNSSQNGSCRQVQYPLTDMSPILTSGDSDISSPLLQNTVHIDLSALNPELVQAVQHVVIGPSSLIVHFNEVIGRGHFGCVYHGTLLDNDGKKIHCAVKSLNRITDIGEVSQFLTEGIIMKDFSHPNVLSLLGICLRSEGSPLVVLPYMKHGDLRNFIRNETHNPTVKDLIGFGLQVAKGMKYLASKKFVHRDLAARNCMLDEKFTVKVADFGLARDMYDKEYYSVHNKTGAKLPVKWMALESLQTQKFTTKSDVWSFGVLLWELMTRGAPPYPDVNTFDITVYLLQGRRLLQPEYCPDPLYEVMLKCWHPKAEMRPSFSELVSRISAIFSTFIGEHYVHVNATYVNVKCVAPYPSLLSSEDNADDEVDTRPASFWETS
Description: Compounds are screened for their ability to inhibit c-Met kinase activity using a standard coupled enzyme system (Fox et al., Protein Sci. 1998, 7, 2249). Reactions are carried out in a solution containing 100 mM HEPES (pH 7.5), 10 mM MgCl2, 25 mM NaCl, 300 μM NADH, 1 mM DTT, and 1.5% DMSO. Final substrate concentrations in the assay are 200 μM ATP (Sigma Chemicals, St Louis, Mo.) and 10 μM polyGluTyr (Sigma Chemical Company, St. Louis). Reactions are carried out at 30° C. and 80 nM c-Met. Final concentrations of the components of the coupled enzyme system are 2.5 mM phosphoenolpyruvate, 300 μM NADH, 30 μg/ml pyruvate kinase and 10 μg/ml lactate dehydrogenase.
An assay stock buffer solution is prepared containing all of the reagents listed above with the exception of ATP and a test compound of the present invention. The assay stock buffer solution (175 μl) is incubated in a 96 well plate with 5 μl of the test compound of the present invention at final concentrations spanning 0.006 μM to 12.5 μM at 30° C. for 10 minutes. Typically, a 12-point titration is conducted by preparing serial dilutions (from 10 mM compound stocks) with DMSO of the test compounds of the present invention in daughter plates. The reaction is initiated by the addition of 20 μl of ATP (final concentration 200 μM). Rates of reaction are obtained using a Molecular Devices Spectramax plate reader (Sunnyvale, Calif.) over 10 minutes at 30° C. The Ki values are determined from the rate data as a function of inhibitor concentration.

Compound	Ki [1] [µM]	Ki [2] [µM]	Ki [3] [µM]
Nc1nn2cc(-c3ccc(N4CCSCC4)nc3)cnc2c1-c1ccccn1 [Compound V-170]	> 5	0.5 to 5	0.5 to 5
Cc1cnc2c(-c3cc(N[C@H]4CCC[C@@H]4OCc4ccccc4)ncn3)c(N)nn2c1 [Compound V-334]	0.5 to 5	0.5 to 5	< 0.5
Nc1nn2cc(-c3ccc(C(=O)N4CCCCC4)cn3)cnc2c1-c1ccccn1 [Compound V-91]	< 0.5	< 0.5	< 0.5
CCCN(CCCN)C(=O)c1cccc(-c2cnc3c(-c4ccccn4)c(N)nn3c2)n1 [Compound V-122]	0.5 to 5	< 0.5	< 0.5
CCOC(=O)C1CCCN(c2ccc(-c3cnc4c(-c5ccccn5)c(N)nn4c3)cn2)C1 (centres unmarked) [Compound V-167]	> 5	0.5 to 5	< 0.5
CC(C)CN(C)CCCc1cnc2c(-c3ccccn3)c(N)nn2c1 [Compound V-317]	> 5	0.5 to 5	0.5 to 5
CC(C)NCCCc1cnc2c(-c3ccccn3)c(N)nn2c1 [Compound V-327]	> 5	0.5 to 5	0.5 to 5
Cc1cnc2c(-c3cc(N4CCCC4C)ncn3)c(N)nn2c1 (centres unmarked) [Compound V-299]	< 0.5	< 0.5	< 0.5
Nc1ccccc1-c1cnc2c(-c3ccccn3)c(N)nn2c1 [Compound V-20]	> 5	0.5 to 5	0.5 to 5
CN1CCN(c2ccc(-c3cnc4c(-c5ccccn5)c(N)nn4c3)cn2)CC1 [Compound V-145]	> 5	< 0.5	< 0.5
CCN(C)CCCc1cnc2c(-c3ccccn3)c(N)nn2c1 [Compound V-318]	> 5	0.5 to 5	0.5 to 5
CCN(CCO)C(=O)c1ccc(-c2cnc3c(-c4ccccn4)c(N)nn3c2)nc1 [Compound V-99]	0.5 to 5	< 0.5	< 0.5
Nc1nn2cc(N3CCCCC3)cnc2c1-c1ccccn1 [Compound V-59]	> 5	0.5 to 5	0.5 to 5
Nc1nn2cc(CCCN3CCCCC3)cnc2c1-c1ccccn1 [Compound V-312]	> 5	0.5 to 5	0.5 to 5
CN1CCCN(c2ncccc2-c2cnc3c(-c4ccccn4)c(N)nn3c2)CC1 [Compound V-267]	> 5	0.5 to 5	0.5 to 5
Nc1nn2cc(C(=O)NCc3ccccc3)cnc2c1-c1ccccn1 [Compound V-207]	> 5	0.5 to 5	0.5 to 5
COC[C@H]1CCCN1c1cc(-c2c(N)nn3cc(C)cnc23)ncn1 [Compound V-302]	0.5 to 5	< 0.5	< 0.5
Nc1nn2cc(-c3ccc(C=O)cc3)cnc2c1-c1ccccn1 [Compound V-193]	–	< 0.5	–
COc1ccc(-c2cn3nc(N)c(-c4ccccn4)c3nc2C(F)(F)F)cc1 [Compound V-218]	–	0.5 to 5	–
Nc1nn2cc(-c3ccc(CCl)cc3)cnc2c1-c1ccccn1 [Compound V-203]	–	< 0.5	–
Nc1nn2cc(-c3ccc(N4CCCC4)nc3)cnc2c1-c1ccccn1 [Compound V-143]	> 5	0.5 to 5	–
COc1ccc(-c2cnc3c(-c4ccc(C)cn4)c(N)nn3c2)cc1 [Compound V-220]	–	0.5 to 5	–
Nc1nn2cc(-c3cccc(C(=O)N4CCC(N5CCCC5)CC4)n3)cnc2c1-c1ccccn1 [Compound V-121]	> 5	0.5 to 5	–
CCN(CC)C(=O)C1CCCN(c2cc(-c3c(N)nn4cc(C)cnc34)ncn2)C1 (centres unmarked) [Compound V-338]	–	0.5 to 5	< 0.5
N#Cc1ccc(-c2cnc3c(-c4ccccn4)c(N)nn3c2)cc1 [Compound V-196]	–	< 0.5	–
Nc1nn2cc(-c3cccc(CCl)c3)cnc2c1-c1ccccn1 [Compound V-210]	–	< 0.5	–
Cc1cnc2c(-c3cc(N[C@H](C)c4ccccc4)ncn3)c(N)nn2c1 [Compound V-300]	–	0.5 to 5	< 0.5
Cc1cnc2c(-c3cc(N[C@@H](C)c4ccccc4)ncn3)c(N)nn2c1 [Compound V-301]	–	0.5 to 5	0.5 to 5
Cc1ccn2nc(N)c(-c3ccccc3)c2n1 [Compound V-1]	> 5	–	–
